Measured values: patent US20080293679A1, “Use of carotenoids and/or carotenoid derivatives/analogs for reduction/inhibition of certain negative effects of COX inhibitors” (priority 2005, published 2008)
Like-named read-outs stand apart in the source and are kept apart here. Marks after values point to notes of the source that are not given here.

Tests used:
[1] = Lipid peroxide (LOOH) formation in DAPC lipid vesicles with cholesterol (triiodide assay); type: biochemical
Method: The ability of astaxanthin to block the pro-oxidant effects of rofecoxib was tested in lipid vesicles reconstituted from DAPC (10 mg/ml) in physiologic buffer (0.5 mM HEPES, 154 mM NaCl, pH=7.32). The lipid vesicles also contained cholesterol at a level that reproduced physiologic conditions (0.2 cholesterol to phospholipid mole ratio). The drug effects were tested in the vesicles following addition of astaxanthin, rofecoxib or the combination of these two agents at an identical concentration (250 nM). To measure lipid peroxide (LOOH) formation, we used an assay that measures the conversion of I2 to I3^− (triiodide). This reaction takes place in the presence of LOOH in a manner that can be measured photometrically at 365 nm, El-Saadani, 1989. […] The lipid peroxidation reaction occurs gradually under normal atmospheric oxygen conditions in a shaking water bath (37° C.).

[2] = Lipid peroxide levels in DLPC multilamellar vesicles, C/P 0.2 (triiodide assay); type: biochemical; conditions: for Lipid Peroxide Levels: mean ± S.D.
Method: The levels of lipid peroxide formation were measured photometrically at specific time points. […] Samples were prepared in a glass test tube as described in the table above. […] Sample tubes were vortexed for 3 min to form MLVs. This assay is based on the principle of the oxidative capacity of lipid peroxides to convert […], which can be measured photometrically at […] (El-Saadani et al., 1989). […] Samples were placed in a water bath set at 37° C. Samples remained in the water bath throughout the experiment except for the temporary removal for time point extractions. • 2. […] • 3. After combining sample time point aliquots with CHOD active reagent and the diffraction buffer as described in the table above, test samples were incubated about 6 hours in darkness at ambient temperature. • 4. The absorbance ([…] nm) of the samples was measured using a spectrophotometer. • 5. […] This value was determined by adding known concentrations of I2 to the CHOD reagent. A stoichiometric relationship (slope=1.02) was observed between the amount of organic peroxides assayed and the concentration of I3^- produced.

[3] = Peroxidation study in DLPC multilamellar vesicles, C/P 0.6; type: biochemical; conditions: C/P 0.6, carotenoid 10 μM, 48 hour
Method: 1. Samples were prepared in a glass test tube as described in the table above. This gives a cholesterol/DLPC mole ratio of 0.6 and a final concentration of 10 μM for the carotenoids. Equal volumes of vehicle (20 μl chloroform) were added to control samples. 2. All samples were dried down under a steady stream of nitrogen gas while vortexing. 3. Samples were placed in a vacuum desiccator for 2 hours to remove residual solvent and protected from light. 4. Multi-lamellar vesicles (MLVs) were prepared by the method developed by Bangham and Standish (1965). After samples were removed from the vacuum desiccator, they were immediately resuspended in 1 ml of diffraction buffer warmed to room temperature and vortexed for 3 minutes to form MLVs.
This assay is based on the principle of the oxidative capacity of lipid peroxides to convert I2 to I3^− (triiodide), which can be measured photometrically at 365 nm (el-Saadani et al., 1989). This assay is sensitive to peroxide concentrations as low as 10 μM.
1. Samples were placed in a water bath set at 37° C. throughout the experiment. 2. Aliquots of a sample (20 μl) were extracted at a 48 hour time point as described in the table below.
3. After combining the samples with CHOD active reagent and the diffraction buffer, test samples were incubated for about 6 hours in darkness at ambient temperature. 4. The absorbance of a sample was measured photometrically at 365 nm.
Concentrations of lipid peroxides were calculated by the use of the molar absorptivity of I3^− measured at 365 nm (ε=2.46±0.25×10^4M^−1 cm^−1). This value was determined by adding known concentrations of […] to the CHOD reagent. A stoichiometric relationship (slope=1.02) was observed between the amount of organic peroxides assayed and the concentration of I3^− produced.

[4] = type: physicochemical
Method: Determination of aqueous solubility/dispersibility. 30.13 mg of 3 was added to 1 mL of USP-purified water. The sample was rotated for 2 hours, then centrifuged for 5 minutes. After centrifuging, solid was visible in the bottom of the tube. A 125-μL aliquot of the solution was then diluted to 25 mL. The sample was analyzed by UV/Vis spectroscopy at 436 nm, and the absorbance was compared to a standard curve compiled from 4 standards of known concentration. The concentration of the original supernatant was calculated to be 2.85 mg/mL and the absorptivity was 36.94 AU*mL/cm*mg. Slight error may have been introduced by the small size of the original aliquot.
Next, 30.80 mg of 9 was added to 1 mL of USP-purified water. The sample was rotated for 2 hours, then centrifuged for 5 minutes. After centrifuging, solid was visible in the bottom of the tube. A 125-μL aliquot of the solution was then diluted to 25 mL. The sample was analyzed by UV/Vis spectroscopy at 411 nm, and the absorbance was compared to a standard curve compiled from 4 standards of known concentration. […] Slight error may have been introduced by the small size of the original aliquot.

[5] = system: superoxide anion generation from phorbol-ester (PMA)-stimulated PMNs; test: Direct superoxide anion scavenging by EPR spectroscopy (DEPMPO spin trap), isolated human neutrophil assay; type: cell-based
Method: Leukocyte Isolation and Preparation. Human polymorphonuclear leukocytes (PMNs) were isolated from freshly sampled venous blood of a single volunteer by Percoll density gradient centrifugation as described previously. Briefly, each 10 mL of whole blood was mixed with 0.8 mL of 0.1 M EDTA and 25 mL of saline. The diluted blood was then layered over 9 mL of Percoll at a specific density of 1.080 g/mL. After centrifugation at 400×g for 20 min at 20° C., the plasma, mononuclear cell, and Percoll layers were removed. Erythrocytes were subsequently lysed by addition of 18 mL of ice-cold water for 30 s, followed by 2 mL of 10×PIPES buffer (25 mM PIPES, 110 mM NaCl, and 5 mM KCl, titrated to pH 7.4 with NaOH). Cells were then pelleted at 4° C., the supernatant was decanted, and the procedure was repeated. After the second hypotonic cell lysis, cells were washed twice with PAG buffer [PIPES buffer containing 0.003% human serum albumin (HSA) and 0.1% glucose]. Afterward, PMNs were counted by light microscopy on a hemocytometer. The isolation yielded PMNs with a purity of >95%. The final pellet was then suspended in PAG-CM buffer (PAG buffer with 1 mM CaCl2 and 1 mM MgCl2).
EPR Measurements. All EPR measurements were performed using a Bruker ER 300 EPR spectrometer operating at X-band with a TM110 cavity as previously described. The microwave frequency was measured with a Model 575 microwave counter (EIP Microwave, Inc., San Jose, Calif.). To measure superoxide anion ? generation from phorbol-ester (PMA)-stimulated PMNs, EPR spin-trapping studies were performed using the spin trap DEPMPO (Oxis, Portland, Oreg.) at 10 mM. 1×10^6 PMNs were stimulated with PMA (1 ng/mL) and loaded into capillary tubes for EPR measurements. To determine the radical scavenging ability of 3 and 9 in aqueous and ethanolic formulations, PMNs were pre-incubated for 5 minutes with test compound, followed by PMA stimulation.
Instrument settings used in the spin-trapping experiments were as follows: modulation amplitude, 0.32 G; time constant, 0.16 s; scan time, 60 s; modulation frequency, 100 kHz; microwave power, 20 milliwatts; and microwave frequency, 9.76 GHz. The samples were placed in a quartz EPR flat cell, and spectra were recorded. The component signals in the spectra were identified and quantified as reported previously.

human LDL [6] = test: Conjugated diene formation in isolated human LDL (CuSO4-induced oxidation); type: biochemical; conditions: 100 nM
Method: (§1) The effects of the compounds on lipid peroxidation were tested in isolated human LDL. Human venous blood was collected into vacutainer tubes containing K3EDTA after a 12-hour fast. Plasma was immediately separated by centrifugation at 3000 g for 25 minutes. LDL was obtained from plasma by ultracentrifugation using a procedure similar to that reported by Chung et al, 1986 using discontinuous KBr gradient. The purity of the freshly isolated LDL was assessed by SDS-PAGE using the procedure of Laemmli, 1970.
(§2) The extent of oxidation was measured for the LDL in the absence and presence of the drugs over a range of concentrations. Malondialdehyde (MDA), a product of lipid oxidation, was measured by the reaction of this aldehyde with thiobarbituric acid in an acid medium to form a stable chromogen, referred to as thiobarbituric-acid-reactive-substances (TBARS). Purified LDL (100 μg protein/ml) was incubated for 30 minutes with either vehicle or an NSAID at various concentrations followed by addition of 50 μM CuSO4 at 37° C. Conjugated diene formation was measured by continuously monitoring the change in absorbance at 234 nm on a Beckman DU 640 spectrophotometer, as described by Esterbauer et al., 1985. Stock solutions were tested for iron contamination, which can contribute independently to lipid peroxidation and assay artifacts.

human LDL [7] = test: MDA formation (TBARS) in isolated human LDL; type: biochemical
Method: as §1, §2

[8] = F2-isoprostane formation from DAPC lipid vesicles by GC/NCI-MS; type: biochemical; conditions: 100 nM; vehicle 140±25 ng/100 μl; mean ± S.D.
Method: F2-Isoprostanes are derived principally from the formation of positioned peroxyl radical isomers of arachidonic acid, endocyclization to protaglandin G2-like structures, and reduction to PGF2-like compounds. Total levels of F2-isoprostanes, in DAPC lipid vesicles prepared in the presence of vehicle or drug, were measured by GC-MS with negative chemical ionization as described by Walter et al., 2000. Peroxidation of lipids occurred over time in the absence of any exogenous initiators at 37° C. F2-Isoprostane formation was also measured independently using mass spectroscopy in a blinded study at the Antioxidant Research Laboratory, Tufts University, Boston, Mass.

[9] = Oxygen Radical Absorption Capacity (ORAC) of human plasma; type: biochemical; conditions: 1.0 μM
Method: The comparative effect of COX-2 selective agents on the antioxidant capacity of human plasma was assessed using the Oxygen Radical Absorption Capacity (ORAC) assay. This assay was carried out according to the method of Huang et al., 2002 with fresh plasma using a microplate fluorescence reader in 96 well format with the excitation and emission filters set at 485 and 530 nm respectively.

[10] = alone at 250 nM, 48 hour incubation at 37° C.

Compound: CC1=C(/C=C/C(C)=C/C=C/C(C)=C/C=C/C=C(C)/C=C/C=C(C)/C=C/C2=C(C)C(=O)[C@@H](O)CC2(C)C)C(C)(C)C[C@H](O)C1=O [Astaxanthin, 3,3′-dihydroxy-β,β′-carotene-4,4′-dione]
- decrease in lipid peroxidation vs control ([1]; added together with rofecoxib at equimolar concentration (250 nM)): 6.5%
- decrease in lipid peroxidation vs control [1, 10]: 4.4%
- % increase (+) or decrease (−) of lipid peroxide levels compared to control ([2]; 24 Hour, carotenoid 1 μM): −6.9%^a
- Lipid Peroxide Levels ([2]; 24 Hour, carotenoid 1 μM, control 218 ± 20): 203 ± 17 µM
- % increase (+) or decrease (−) of lipid peroxide levels compared to control ([2]; 24 Hour, carotenoid 10 μM): −22.5%
- Lipid Peroxide Levels ([2]; 24 Hour, carotenoid 10 μM, control 218 ± 20): 169 ± 7 µM
- % increase (+) or decrease (−) of lipid peroxide levels compared to control ([2]; 48 Hour, carotenoid 1 μM): −12.6%^a
- Lipid Peroxide Levels ([2]; 48 Hour, carotenoid 1 μM, control 572 ± 76): 500 ± 57 µM
- % increase (+) or decrease (−) of lipid peroxide levels compared to control ([2]; 48 Hour, carotenoid 10 μM): −40.7%^a
- Lipid Peroxide Levels ([2]; 48 Hour, carotenoid 10 μM, control 572 ± 76): 339 ± 42 µM
- antioxidant/pro-oxidant effect ([2]; C/P 0.2): strong antioxidant effect
- antioxidant/prooxidant activity [3]: the only antioxidant

Compound: β,ε-carotenyl 3,3′-disuccinate sodium salt [Lutein Disuccinate Sodium Salt]
- aqueous solubility/dispersibility [4]: 2850 µg/mL
- Mean (% inhibition) of superoxide anion signal ([5]; 40% EtOH, 0.1 mM, listed as disodium disuccinate derivative of natural source lutein, sodium salt): did not significantly increase scavenging
- Mean (% inhibition) of superoxide anion signal ([5]; 40% EtOH, 0.1 mM, sodium salt): 5.0%
- Mean (% inhibition) of superoxide anion signal ([5]; Water, 0.1 mM): 0%
- Mean (% inhibition) of superoxide anion signal ([5]; Water, 1.0 mM): 13.0%
- Mean (% inhibition) of superoxide anion signal ([5]; Water, 3.0 mM): 61.7%
- Mean (% inhibition) of superoxide anion signal ([5]; Water, 5.0 mM, listed as disodium disuccinate derivative of natural source lutein, sodium salt): ~75%
- Mean (% inhibition) of superoxide anion signal ([5]; Water, 5.0 mM, listed as disuccinate lutein sodium salt, sodium salt): 75%
- Mean (% inhibition) of superoxide anion signal ([5]; Water, 5.0 mM, sodium salt): 74.7%

Compound: CS(=O)(=O)c1ccc(C2=C(c3ccccc3)C(=O)OC2)cc1 [rofecoxib]
- decrease in lag time for human LDL conjugated diene formation (human LDL [6]): 42.8±1.5%
- effect on MDA levels (TBARS) in human LDL (human LDL [7]): marked increases
- effect on MDA levels (TBARS) in human LDL (human LDL [7]; 50 nM, 10-fold lower than comparison drugs): significant increase
- Levels of isoprostanes [8]: 190±18 ng/100 μl
- reduction of ORAC value ([9]; fresh human plasma): 34%
- ORAC value (AUC) ([9]; vehicle 28.1±1.2): 18.6±1.3
- increase in lipid peroxide levels vs control [1, 10]: 7.4%
